Measured values published in EPA's ToxValDB 9.5.
“And” between values parts separate entries of the source, which are not always exact repeats. Identical values can stand only once.

Tests used:
Canidae = conditions: oral, M/F, Dog Other; for LEL / NOEL: chronic, diet
Oryctolagus sp. = conditions: acute; oral
Rattus norvegicus [1] = conditions: for NOAEL: Sprague-Dawley
Rattus norvegicus [2] = conditions: subchronic; oral; gavage; M/F; Crj:CD; Deaths + Clinical Observation: Loose stool Locomotor activity decrease, Hypopnea Subnormal temperature decrease + Body Weight Changes: …
Rattus norvegicus [3] = conditions: oral, M/F
Mus musculus [4] = conditions: uterotrophic, Active
Rattus norvegicus [5] = conditions: for LEL: uterotrophic, Active
Rattus norvegicus [6] = conditions: oral
Rattus norvegicus [7] = conditions: short-term; duration: 3 days; injection; subcutaneous; F; Crj:CD; uterus: uterine dry weight (absolute)
Mus musculus [8] = conditions: chronic, M/F; for LEL / NOEL: oral, diet
Rattus norvegicus [9] = conditions: subchronic; duration: 13 weeks; oral; diet; M; Sprague-Dawley; renal
[10] = duration: 2 years, reduced body weight gain
[11] = duration: 1 days, injection, subcutaneous
[12] = duration: 7 days, injection, subcutaneous
[13] = duration: 1 years, increased serum cholesterol, alkaline phosphatase, and relative liver and kidney weight, and decreased alanine transaminase and adrenal …
[14] = duration: 6 months, liver and thyroid effects
[15] = Hershberger, duration: 10 days, oral, gavage, Sprague-Dawley, active + Negative + Antiandrogenic + anti-androgenic + Delayed PPS and decreased AST wt at 375 / bw decreased 6-7% / increased liver wt in…
[16] = duration: 20 months, increased absolute liver weight and nonneoplastic lesions
[17] = duration: 2 years, Increased mean blood sugar concentration + slight hypothermia
[18] = subchronic, duration: 90 days, hematologic, hepatic and renal toxicity
[19] = duration: 2 years, centrilobular hepatocytomegaly (males)

Work on `C=CCOC(Cn1ccnc1)c1ccc(Cl)cc1Cl` (configuration not stated) [Imazalil] yielded an LEL (Canidae; [10]) of 5 mg/kg-day and an NOEL (Canidae; [10]) of 1.25 mg/kg-day.
For `CC(C)(c1ccc(O)cc1)c1ccc(O)cc1` [Bisphenol A], the LD50 (Oryctolagus sp.) was 2230 mg/kg, the LC50 (Rattus norvegicus [1]; acute, inhalation, particle, Fischer 344) was > 170 µg/mL and the LD50 (Rattus norvegicus [1]; acute, oral, Fischer 344) was 4100 mg/kg and 3300 mg/kg. For the same molecule, the NOAEL (Rattus norvegicus [1]; developmental, duration: 10 days, oral, gavage) was > 640 mg/kg-day, the NOAEL (Rattus norvegicus [1]; reproduction developmental, duration: 13 weeks, oral, diet, generation: F0) was 75 ppm and the NOAEL (Rattus norvegicus [1]; reproduction developmental, duration: 13 weeks, oral, diet, generation: F1) was 750 ppm. It also gave an LOAEL (Rattus norvegicus [1]; reproduction developmental, duration: 103 weeks, oral, diet, Fischer 344, generation: F0) of 1000 ppm, an NOEL (Rattus norvegicus [2]) of 40 mg/kg-day and an LOAEL (Rattus norvegicus [3]; chronic, reduced mean body weight) of 50 mg/kg-day. For the same molecule, the LEL (Mus musculus [4]; duration: 0.17 days, injection, subcutaneous) was 0.00228 mg, the LEL (Mus musculus [4]; [11]) was 10 mg/kg-day and the LEL (Mus musculus [4]; duration: 3 days, injection, intraperitoneal) was 20 mg/kg-day. For the same molecule, the LEL (Mus musculus [4]; duration: 3 days, osmotic minipump) was 100 mg/kg-day, the LEL (Mus musculus [4]; [12]) was 100 mg/kg-day and the LEL (Rattus norvegicus [5]; [11]) was 400 mg/kg-day. The LEL (Rattus norvegicus [5]; duration: 2 days, injection, subcutaneous) was 200 mg/kg-day, the LEL (Rattus norvegicus [5]; duration: 4 days, injection, intraperitoneal) was 0.5 mg/kg-day and the LEL (Rattus norvegicus [5]; [12]) was 11 mg/kg-day. For the same molecule, the LEL (Rattus norvegicus [5]; duration: 7 days, lactation) was 150 mg/kg-day, the NOAEL (Rattus norvegicus [6]; subchronic, duration: 13 weeks, Whole body: Decreased weight) was 750 ppm and the LOEL (Rattus norvegicus [7]) was 20 mg/kg-day. It also gave an NOEL (Rattus norvegicus [7]) of 2 mg/kg-day.
`CCCN(CCC)c1c([N+](=O)[O-])cc(S(N)(=O)=O)cc1[N+](=O)[O-]` [Oryzalin] gave an LEL (Canidae; [13]) of 50 mg/kg-day and an NOEL (Canidae; [13]) of 5 mg/kg-day.
For `CNc1cnn(-c2cccc(C(F)(F)F)c2)c(=O)c1Cl` [Norflurazon], the LEL (Canidae; [14]) was 10.2 mg/kg-day, the NOEL (Canidae; [14]) was 3.75 mg/kg-day and the LOEL (Rattus norvegicus [5]; [15]) was 375 mg/kg-day and 1000 mg/kg-day. The NOEL (Rattus norvegicus [5]; [15]) was 185 mg/kg-day and 300 mg/kg-day.
In the case of `CCOc1cc(Oc2ccc(C(F)(F)F)cc2Cl)ccc1[N+](=O)[O-]` [Oxyfluorfen], the LEL (Mus musculus [8]; [16]) is reported as 3 mg/kg-day and the NOEL (Mus musculus [8]; [16]) is reported as 0.3 mg/kg-day.
`CCC1CO1` (configuration not stated) [1,2-Epoxybutane] was tested, and the LOAEL (Mus musculus [8]; duration: 2 years, inhalation, degenerative lesions of the nasal cavity) was 147 mg/m3.
In the case of `Cc1ccc(N=CN(C)C=Nc2ccc(C)cc2C)c(C)c1` [Amitraz], the LEL (Canidae; [17]) is reported as 1 mg/kg-day and the NOEL (Canidae; [17]) is reported as 0.25 mg/kg-day.
In the case of `O=C(O)C(Cl)Cl` [Dichloroacetic acid], the LOAEL (Canidae; subchronic, lesions in testes, cerebrum, cerebellum, and liver) is reported as 12.5 mg/kg-day.
Molecule `O=C(O)COc1ccc(Cl)cc1Cl` [2,4-Dichlorophenoxyacetic acid] has an LOAEL (Rattus norvegicus [3]; [18]) of 5 mg/kg-day, an NOAEL (Rattus norvegicus [3]; [18]) of 1 mg/kg-day and an NOAEL (Rattus norvegicus [9]) of 16.6 mg/kg-day. The NOAEL (Rattus norvegicus [6]; chronic, duration: 91 days, diet, Blood: Toxicity + Kidney: Toxicity + Liver: Toxicity) was 1 mg/kg-day.
`COc1nc(C)nc(NC(=O)NS(=O)(=O)c2ccccc2OCCCl)n1` [Triasulfuron] gave an LEL (Mus musculus [8]; [19]) of 129 mg/kg-day and an NOEL (Mus musculus [8]; [19]) of 1.2 mg/kg-day.
